Measured values published in article doi:10.1101/2025.06.15.659787v1 (biorxiv, 2025).

Biological target: Mtb-SufS (Mycobacterium tuberculosis, UniProt P9WQ69)
Sequence (P9WQ69 whole entry): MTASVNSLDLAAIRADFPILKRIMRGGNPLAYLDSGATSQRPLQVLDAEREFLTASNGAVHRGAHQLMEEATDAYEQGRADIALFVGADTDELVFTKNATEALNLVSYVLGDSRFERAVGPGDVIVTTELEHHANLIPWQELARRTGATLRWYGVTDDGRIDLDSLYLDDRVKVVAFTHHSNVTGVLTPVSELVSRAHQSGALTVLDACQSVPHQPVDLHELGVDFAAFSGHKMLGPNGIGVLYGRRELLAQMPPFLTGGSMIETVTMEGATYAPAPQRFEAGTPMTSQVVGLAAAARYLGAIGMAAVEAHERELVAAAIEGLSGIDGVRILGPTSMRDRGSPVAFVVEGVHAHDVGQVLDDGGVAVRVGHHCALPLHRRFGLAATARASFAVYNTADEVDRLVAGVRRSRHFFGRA

For `N[C@@H](CS)C(=O)O` [L-Cys], the “GC-MS assay of L-Ala formation” value was “Mtb-SufS shows low basal activity”.
